Patent publication US6737383B1, “Herbicidal oxadiazolidines” (priority 1999, dated 2004)

What was measured:
giant foxtail = experiment: Test B pre/postemergence giant foxtail; type: in vivo, Setaria faberii
Outline: (§1)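 Test chemicals in a non-phytotoxic solvent mixture with surfactant were sprayed preemergence onto planted seeds and postemergence onto plants 2 to 18 cm tall (1- to 4-leaf stage). After twelve to sixteen days in a greenhouse, injury was visually rated against untreated controls from 0 (no effect) to 10 (complete control).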

purple nutsedge = experiment: Test B pre/postemergence purple nutsedge; type: in vivo, Cyperus rotundus
Outline: as §1

blackgrass = experiment: Test B pre/postemergence blackgrass; type: in vivo, Alopecurus myosuroides
Outline: as §1

wheat = experiment: Test B pre/postemergence wheat; type: in vivo, Triticum aestivum
Outline: as §1

[1] = Postemergence, Rate 125 g/ha, scale 0 to 10, 0 is no effect, 10 is complete control
[2] = Preemergence, Rate 62 g/ha, scale 0 to 10 (0 no effect, 10 complete control)
[3] = Preemergence, Rate 250 g/ha, scale of 0 to 10 where 0 is no effect and 10 is complete control
[4] = Preemergence, Rate 500 g/ha, scale of 0 to 10 where 0 is no effect and 10 is complete control
[5] = Rate 62 g/ha, Postemergence, scale of 0 to 10 where 0 is no effect and 10 is complete control
[6] = Rate 500 g/ha, Postemergence, scale 0 to 10, 0 no effect, 10 complete control
[7] = Rate 250 g/ha, Postemergence, scale of 0 to 10 where 0 is no effect and 10 is complete control
[8] = Postemergence, Rate 62 g/ha, scale 0 to 10, 0 is no effect, 10 is complete control
[9] = Postemergence, Rate 250 g/ha, scale 0 to 10, 0 no effect, 10 complete control
[10] = Preemergence, Rate 62 g/ha, scale 0 to 10, 0 is no effect, 10 is complete control
[11] = Preemergence, Rate 125 g/ha, scale 0 to 10 (0 no effect, 10 complete control)
[12] = Preemergence, Rate 500 g/ha, scale 0 (no effect) to 10 (complete control)
[13] = Rate 125 g/ha, Postemergence, scale 0 to 10, 0 no effect, 10 complete control
[14] = Rate 500 g/ha, Postemergence, 0 to 10 scale (0 no effect, 10 complete control)
[15] = Preemergence, Rate 62 g/ha, scale of 0 to 10 where 0 is no effect and 10 is complete control
[16] = Rate 62 g/ha, Postemergence, scale 0 to 10 (0 no effect, 10 complete control)
[17] = Postemergence, Rate 62 g/ha, scale of 0 to 10, 0 is no effect, 10 is complete control
[18] = Postemergence, Rate 500 g/ha, scale of 0 to 10 where 0 is no effect and 10 is complete control
[19] = Preemergence, Rate 125 g/ha, scale 0 to 10, 0 is no effect, 10 is complete control
[20] = Postemergence, Rate 125 g/ha, scale of 0 to 10 where 0 is no effect and 10 is complete control
[21] = Postemergence, Rate 250 g/ha, scale of 0 to 10, 0 is no effect, 10 is complete control
[22] = Preemergence, Rate 125 g/ha, scale of 0 to 10 where 0 is no effect and 10 is complete control

Compound: CC(C)N(C(=O)n1oc(=O)n(C2CCCO2)c1=O)c1ccc(F)cc1 (centres unmarked) [Compound 345]
- Plant response rating, Giant foxtail (giant foxtail; [1]): 0
- Plant response rating, Giant foxtail (giant foxtail; [2]): 0
- Giant foxtail plant response rating (0 to 10 scale) (giant foxtail; Preemergence, Rate 125 g/ha): 0
- Giant foxtail plant response rating (giant foxtail; [3]): 0
- Giant foxtail plant response rating (giant foxtail; [4]): 0
- Giant foxtail plant response rating (giant foxtail; [5]): 0
- Plant response rating, Giant foxtail (giant foxtail; [6]): 0
- Plant response rating, Nutsedge (purple nutsedge; [1]): 0
- Plant response rating, Nutsedge (purple nutsedge; [2]): 0
- Nutsedge plant response rating (0 to 10 scale) (purple nutsedge; Preemergence, Rate 125 g/ha): 0
- Nutsedge plant response rating (purple nutsedge; [3]): 0
- Nutsedge plant response rating (purple nutsedge; [4]): 0
- Nutsedge plant response rating (purple nutsedge; [5]): 0
- Plant response rating, Nutsedge (purple nutsedge; [6]): 0
- Plant response rating, Blackgrass (blackgrass; [1]): 0
- Plant response rating, Blackgrass (blackgrass; [2]): 0
- Blackgrass plant response rating (0 to 10 scale) (blackgrass; Preemergence, Rate 125 g/ha): 0
- Blackgrass plant response rating (blackgrass; [3]): 0
- Blackgrass plant response rating (blackgrass; [4]): 0
- Blackgrass plant response rating (blackgrass; [5]): 0
- Plant response rating, Blackgrass (blackgrass; [7]): 0
- Plant response rating, Blackgrass (blackgrass; [6]): 0
- Plant response rating, Wheat (wheat; [1]): 0
- Plant response rating, Wheat (wheat; [2]): 0
- Wheat plant response rating (0 to 10 scale) (wheat; Preemergence, Rate 125 g/ha): 0
- Wheat plant response rating (wheat; [3]): 0
- Wheat plant response rating (wheat; [4]): 0
- Wheat plant response rating (wheat; [5]): 0
- Plant response rating, Wheat (wheat; [6]): 0

Compound: CC(C)N(C(=O)n1oc(=O)n(-c2ccccc2C(F)(F)F)c1=O)c1ccc(F)cc1 [Compound 15]
- Giant foxtail plant response rating (giant foxtail; [8]): 0
- Giant foxtail plant response rating (giant foxtail; [9]): 0
- Plant response rating, Giant foxtail (giant foxtail; [10]): 6
- Plant response rating, Giant foxtail (giant foxtail; [11]): 8
- Giant foxtail plant response rating (giant foxtail; [12]): 10
- Giant foxtail plant response rating (giant foxtail; [13]): 0
- Giant foxtail plant response rating (giant foxtail; [14]): 0
- Nutsedge plant response rating (purple nutsedge; [8]): 0
- Nutsedge plant response rating (purple nutsedge; [9]): 0
- Plant response rating, Nutsedge (purple nutsedge; [10]): 0
- Plant response rating, Nutsedge (purple nutsedge; [11]): 0
- Nutsedge plant response rating (purple nutsedge; [12]): 0
- Nutsedge plant response rating (purple nutsedge; [13]): 0
- Nutsedge plant response rating (purple nutsedge; [14]): 0
- Blackgrass plant response rating (blackgrass; [8]): 0
- Blackgrass plant response rating (blackgrass; [9]): 0
- Plant response rating, Blackgrass (blackgrass; [10]): 0
- Plant response rating, Blackgrass (blackgrass; [11]): 0
- Plant response rating, Blackgrass (blackgrass; [3]): 0
- Blackgrass plant response rating (blackgrass; [12]): 0
- Blackgrass plant response rating (blackgrass; [13]): 0
- Blackgrass plant response rating (blackgrass; [14]): 3
- Wheat plant response rating (wheat; [8]): 0
- Wheat plant response rating (wheat; [9]): 0
- Plant response rating, Wheat (wheat; [10]): 0
- Plant response rating, Wheat (wheat; [11]): 0
- Plant response rating, Wheat (wheat; [3]): 0
- Wheat plant response rating (wheat; [12]): 0
- Wheat plant response rating (wheat; [13]): 0

Compound: Cc1ccccc1-n1c(=O)on(C(=O)N(c2ccc(Cl)cc2)C(C)C2CC2)c1=O (centres unmarked) [Compound 330]
- Plant response rating, Giant foxtail (giant foxtail; [1]): 0
- Giant foxtail plant response rating (giant foxtail; [15]): 0
- Giant foxtail plant response rating (0 to 10 scale) (giant foxtail; Preemergence, Rate 125 g/ha): 0
- Giant foxtail plant response rating (giant foxtail; [3]): 0
- Giant foxtail plant response rating (giant foxtail; [4]): 0
- Giant foxtail plant response rating (giant foxtail; [16]): 0
- Plant response rating, Giant foxtail (giant foxtail; [6]): 0
- Plant response rating, Nutsedge (purple nutsedge; [1]): 0
- Nutsedge plant response rating (purple nutsedge; [15]): 0
- Nutsedge plant response rating (0 to 10 scale) (purple nutsedge; Preemergence, Rate 125 g/ha): 0
- Nutsedge plant response rating (purple nutsedge; [3]): 0
- Nutsedge plant response rating (purple nutsedge; [4]): 0
- Nutsedge plant response rating (purple nutsedge; [16]): 0
- Plant response rating, Nutsedge (purple nutsedge; [6]): 0
- Plant response rating, Blackgrass (blackgrass; [1]): 0
- Blackgrass plant response rating (blackgrass; [15]): 0
- Blackgrass plant response rating (0 to 10 scale) (blackgrass; Preemergence, Rate 125 g/ha): 0
- Blackgrass plant response rating (blackgrass; [3]): 0
- Blackgrass plant response rating (blackgrass; [16]): 0
- Plant response rating, Blackgrass (blackgrass; [7]): 0
- Plant response rating, Blackgrass (blackgrass; [6]): 0
- Plant response rating, Wheat (wheat; [1]): 0
- Wheat plant response rating (wheat; [15]): 0
- Wheat plant response rating (0 to 10 scale) (wheat; Preemergence, Rate 125 g/ha): 0
- Wheat plant response rating (wheat; [3]): 0
- Wheat plant response rating (wheat; [4]): 0
- Wheat plant response rating (wheat; [16]): 0
- Plant response rating, Wheat (wheat; [6]): 0

Compound: CC(C)N(C(=O)n1oc(=O)n(C(C)C(=O)c2ccccc2)c1=O)c1ccccc1 (centres unmarked) [Compound 570]
- Giant foxtail plant response rating (giant foxtail; [17]): 0
- Giant foxtail plant response rating (giant foxtail; [1]): 0
- Plant response rating, Giant foxtail (giant foxtail; [18]): 0
- Giant foxtail plant response rating (giant foxtail; [2]): 0
- Giant foxtail plant response rating (giant foxtail; [19]): 0
- Giant foxtail plant response rating (0 to 10 scale) (giant foxtail; Preemergence, Rate 250 g/ha): 9
- Giant foxtail plant response rating (giant foxtail; [4]): 9
- Plant response rating, Giant foxtail (giant foxtail; [7]): 0
- Nutsedge plant response rating (purple nutsedge; [17]): 0
- Nutsedge plant response rating (purple nutsedge; [1]): 0
- Plant response rating, Nutsedge (purple nutsedge; [18]): 0
- Nutsedge plant response rating (purple nutsedge; [2]): 0
- Nutsedge plant response rating (purple nutsedge; [19]): 0
- Nutsedge plant response rating (purple nutsedge; [4]): 0
- Plant response rating, Nutsedge (purple nutsedge; [7]): 0
- Blackgrass plant response rating (blackgrass; [17]): 0
- Blackgrass plant response rating (blackgrass; [1]): 0
- Plant response rating, Blackgrass (blackgrass; [18]): 0
- Blackgrass plant response rating (blackgrass; [2]): 0
- Blackgrass plant response rating (blackgrass; [19]): 0
- Blackgrass plant response rating (0 to 10 scale) (blackgrass; Preemergence, Rate 250 g/ha): 0
- Blackgrass plant response rating (blackgrass; [4]): 0
- Plant response rating, Blackgrass (blackgrass; [7]): 0
- Plant response rating, Wheat (wheat; [18]): 0
- Wheat plant response rating (wheat; [2]): 0
- Wheat plant response rating (wheat; [19]): 0
- Wheat plant response rating (0 to 10 scale) (wheat; Preemergence, Rate 250 g/ha): 0
- Wheat plant response rating (wheat; [4]): 0
- Plant response rating, Wheat (wheat; [7]): 0

Compound: CC(C)N(C(=O)n1oc(=O)n(CC2=NOCCC2)c1=O)c1ccc(F)cc1F [Compound 602]
- Plant response rating, Giant foxtail (giant foxtail; [8]): 1
- Plant response rating, Giant foxtail (giant foxtail; [20]): 8
- Giant foxtail plant response rating (giant foxtail; [21]): 9
- Plant response rating, Giant foxtail (giant foxtail; [18]): 9
- Giant foxtail plant response rating (giant foxtail; [2]): 9
- Giant foxtail plant response rating (giant foxtail; [22]): 9
- Plant response rating, Giant foxtail (giant foxtail; [4]): 10
- Plant response rating, Nutsedge (purple nutsedge; [8]): 0
- Plant response rating, Nutsedge (purple nutsedge; [20]): 0
- Nutsedge plant response rating (purple nutsedge; [21]): 0
- Plant response rating, Nutsedge (purple nutsedge; [18]): 0
- Nutsedge plant response rating (purple nutsedge; [2]): 0
- Nutsedge plant response rating (purple nutsedge; [22]): 0
- Plant response rating, Nutsedge (purple nutsedge; [4]): 0
- Plant response rating, Blackgrass (blackgrass; [8]): 4
- Plant response rating, Blackgrass (blackgrass; [20]): 6
- Blackgrass plant response rating (blackgrass; [21]): 8
- Plant response rating, Blackgrass (blackgrass; [18]): 9
- Blackgrass plant response rating (blackgrass; [2]): 0
- Blackgrass plant response rating (blackgrass; [22]): 4
- Blackgrass plant response rating (0 to 10 scale) (blackgrass; Preemergence, Rate 250 g/ha): 6
- Blackgrass plant response rating (blackgrass; [4]): 9
- Plant response rating, Wheat (wheat; [8]): 0
- Plant response rating, Wheat (wheat; [20]): 0
- Wheat plant response rating (wheat; [21]): 0
- Plant response rating, Wheat (wheat; [18]): 0
- Wheat plant response rating (wheat; [2]): 0
- Wheat plant response rating (wheat; [22]): 0
- Plant response rating, Wheat (wheat; [4]): 0

Compound: CC(C)N(C(=O)n1oc(=O)n(Cc2ccccc2)c1=O)c1ccc(F)cc1F [Compound 79]
- Giant foxtail plant response rating (giant foxtail; [8]): 0
- Giant foxtail plant response rating (giant foxtail; [9]): 3
- Giant foxtail plant response rating (giant foxtail; [2]): 4
- Plant response rating, Giant foxtail (giant foxtail; [11]): 8
- Plant response rating, Giant foxtail (giant foxtail; [3]): 9
- Giant foxtail plant response rating (giant foxtail; [12]): 9
- Giant foxtail plant response rating (giant foxtail; [13]): 2
- Giant foxtail plant response rating (giant foxtail; [6]): 4
- Nutsedge plant response rating (purple nutsedge; [8]): 0
- Nutsedge plant response rating (purple nutsedge; [9]): 0
- Nutsedge plant response rating (purple nutsedge; [2]): 0
- Plant response rating, Nutsedge (purple nutsedge; [11]): 0
- Plant response rating, Nutsedge (purple nutsedge; [3]): 0
- Nutsedge plant response rating (purple nutsedge; [12]): 0
- Nutsedge plant response rating (purple nutsedge; [13]): 0
- Nutsedge plant response rating (purple nutsedge; [6]): 0
- Blackgrass plant response rating (blackgrass; [8]): 0
- Blackgrass plant response rating (blackgrass; [9]): 3
- Blackgrass plant response rating (blackgrass; [2]): 0
- Plant response rating, Blackgrass (blackgrass; [11]): 2
- Plant response rating, Blackgrass (blackgrass; [3]): 6
- Blackgrass plant response rating (blackgrass; [12]): 6
- Blackgrass plant response rating (blackgrass; [13]): 0
- Blackgrass plant response rating (blackgrass; [6]): 3
- Wheat plant response rating (wheat; [8]): 0
- Wheat plant response rating (wheat; [9]): 0
- Wheat plant response rating (wheat; [2]): 0
- Plant response rating, Wheat (wheat; [11]): 0
- Plant response rating, Wheat (wheat; [3]): 0
- Wheat plant response rating (wheat; [12]): 2
- Wheat plant response rating (wheat; [13]): 0
- Wheat plant response rating (wheat; [6]): 0
